Laboratory results as given in patent US6534495B1, “Serine protease inhibitors” (Akzo Nebel, priority 1997, dated 2003).

Tests used:
Assay type in all cases: biochemical
[1] = molecular target: T1, Bovine Factor Xa Human (Bos taurus, UniProt P00743); assay: Anti-factor Xa assay (hydrolysis of chromogenic substrate S-2222); conditions: S-2222, TNP buffer, 37° C.
T1 construct: purchased Kabi Diagnostica
Description: Activated Factor X (Xa) is a factor in the coagulation cascade. The anti-Xa activity of compounds of the present invention was assessed by measuring spectrophotometrically the rate of hydrolysis of the chromogenic substrate s-2222 exterted by Xa. This assay for anti-Xa activity in a buffer system was used to assess the IC50-value of the test compound.
In general the followed procedure and test conditions were analogous to those of the anti-thrombin assay as described above. Differences are indicated below.
Reference compound: benzamidine
Solubilisation can be assisted with dimethylsulfoxide, methanol, ethanol, acetonitrile or tert.-butyl alcohol which are without adverse effects in concentrations up to 1% (for DMSO) and 2.5% (for the other solvents) in the final reaction mixture.
One vial S-2222 (15 mg; Kabi Diagnostica, Sweden) is dissolved in 10 ml water to give a concentration of 1.5 mg.ml^−1 (2 mmol.l^−1).
Bovine Factor Xa Human (71 nKat.vial^−1, Kabi Diagnostica) is dissolved in 10 ml TNP buffer and then further diluted with 30 ml TNP buffer to give a concentration of 1.77 nKat.ml^−1. The dilution has to be freshly prepared.
Instead of the S-2238 solution (in anti-thrombin assay), the above S-2222 solution is added to each well in this assay.

[2] = molecular target: T2, recombinant human factor VIIa / recombinant human Tissue Factor complex (Homo sapiens, UniProt P08709); assay: Anti factor VIIa/tissue factor assay (amidolysis of Pefachrome VIIa); conditions: for percentage inhibition, anti factor VIIa/tissue factor activity: single point, at a concentration of 1×10^−5 M
T2 construct: purchased American Diagnostica Inc, Greenwich, Conn
Excerpt: III. Anti Factor VIIa/Tissue Factor Assay
Vascular damage initiates a series of enzyme generation reactions ultimately leading to the formation of a fibrin gel at the site of the injury. The primary enzyme generation reaction is the generation of activated factor VII (VIIa) from proenzyme factor VII. This activation reaction takes place by an as yet unknown mechanism. […] The activated Factor VII then also binds to membrane-bound TF and this […] tenase complex next converts Factor X into Factor Xa.
Thrombosis develops when there is insufficient control of the coagulation reaction. One way to restore this control is by inhibiting essential coagulation enzymes such as for instance the complex of membrane-bound TF and Factor VIIa. […] A method is described by which the inhibitory potency of compounds towards VIIa/TF complex can be established. Test compounds are mixed at various concentrations with factor VIIa and TF and with a chromogenic substrate, which is known to be split far better by TF-bound VIIa than by free VIIa. The amidolytic reaction taking place is continuously monitored in a microtiter plate reader. Inhibitory potency of the compounds investigated is expressed by the IC50, defined as the concentration of compounds yielding 50% inhibition of the amidolytic reaction, ninety minutes after the start of the reaction.
A ten times concentrated Hepes buffer made by dissolving 29.40 g CaCl2.2H2O, 47.66 g Hepes, 87.66 g NaCl and 30.00 g polyethyleneglycol (PEG) MW=6000 in 1000 ml aqua bidest. After the solution has been heated to 37° C., the pH of the buffer is set on 7.40 with help of 10 molar NaOH. The concentrated buffer solution is stored at 4° C. and is stable for at least two months at this condition. Prior to use the buffer is diluted in aqua bidest. 1 to 8 to obtain a final concentration in the wells (See test procedure) of 20 mM CaCl2, 20 mM Hepes, 150 mM NaCl and 0.3% PEG6000. If compounds are dissolved and diluted in aqua bidest. or another vehicle because of an insufficient solubility the Hepes buffer can be diluted 1 to 6 to preserve the same ionic strength in the test.
Recombinant Human Factor VIIa
Recombinant human factor VIIa is obtained from American Diagnostica Inc, Greenwich, Conn. Each vial contains 1.2 mg recombinant human factor VIIa, which is lyophilized from 2 ml buffer composed of 10 mM glycylglycine, 50 mM NaCl, 10 mM CaCl2, 30 mg/ml mannitol, 0.1% Tween, pH 5.5. The contents of each of these vials is reconstituted with 2 ml aqua bidest. as indicated by the manufacturer. The 2 ml 1.2*10^−5 stock solution thus obtained is divided in smaller fractions, which are stored at −30° C. At this condition these VIIa samples are stable for at least 6 months.
Recombinant Human Tissue Factor
Recombinant human Tissue Factor is obtained from American Diagnostica Inc, Greenwich, Conn. Each vial contains 25 μg recombinant human Tissue Factor (non-lipidated, MW 35000 Dalton), which is lyophilized from 1 ml Tris/HCl buffer (pH 8.0) composed of 150 mM NaCl, 200 mM mannitol and 10 mM CHAPS (Steroid derivative used to solubilize membrane proteins; see Merck Index). The contents of each vial is reconstituted with 1 ml aqua bidest. as indicated by the manufacturer. The 1 ml 7.14×10^−7 M stock solution thus obtained is divided in smaller fractions, which are stored at −30° C. Thus stored these VIIa samples are stable for at least 67 months. […]

[3] = molecular target: T3, Human thrombin (Homo sapiens, UniProt P00734); assay: Anti-thrombin assay (hydrolysis of chromogenic substrate S-2238); conditions: S-2238, TNP buffer, 37° C., read-out: IC50, antithrombin activity
T3 construct: purchased Centraal Laboratorium voor Bloedtransfusie, Amsterdam, The Netherlands
Description: Thrombin (Factor […]) is a factor in the coagulation cascade.
The anti-thrombin activity of compounds of the present invention was assessed by measuring spectrophotometrically the rate of hydrolysis of the chromogenic substrate s-2238 exterted by thrombin. This assay for anti-thrombin activity in a buffer system was used to assess the IC50-value of a test compound.
Test medium: Tromethamine-NaCl-polyethylene glycol 6000 (TNP) buffer
Reference compound: 12581 (Kabi)
Solubilisation can be assisted with dimethylsulfoxide, methanol, ethanol, acetonitrile or tert.-butyl alcohol which are without adverse effects in concentrations up to 2.5% in the final reaction mixture.
1. Tromethamine-NaCl (TN) buffer
Composition of the buffer:
The pH of the solution is adjusted to 7.4 at 37° C. with HCl (10 mmol.l^−1).
Polyethylene glycol 6000 is dissolved in TN buffer to give a concentration of 3 g.l^−1.
One vial S-2238 (25 mg; Kabi Diagnostica, Sweden) is dissolved in 20 ml TN buffer to give a concentration of 1.25 mg.ml^−1 (2 mmol.l^−1).
Human thrombin (16 000 nKat.vial^−1; Centraal Laboratorium voor Bloedtransfusie, Amsterdam, The Netherlands) is dissolved in TNP buffer to give a stock solution of 835 nKat.ml^−1.
Immediately before use this solution is diluted with TNP buffer to give a concentration of 3.34 nKat.ml^−1.
All ingredients used are of analytical grade
For aqueous solutions ultrapure water (Milli-Q quality) is used.
Preparation of Test and Reference Compound Solutions
The test and reference compounds are dissolved in Milli-Q water to give stock concentrations of 10^−2 mol.l^−1. Each concentration is stepwise diluted with the vehicle to give concentrations of […], 10^−4 and 10^−5 mol.l^−1. The dilutions, including the stock solution, are used in the assay (final concentrations in the reaction mixture: 3·10^−3; 10^−3; 3·10^−4; 10^−4; 3·10^−5; 10^−5, 3·10^−6 and 10^−6 mol.l^−1, respectively).
At room temperature 0.075 ml and 0.025 ml test compound or reference compound solutions or vehicle are alternately pipetted into the wells of a microtiter plate and these solutions are diluted with 0.115 ml and 0.0165 ml TNP buffer, respectively. […] Starting after 1 min of incubation, the absorbance of each sample at 405 nm is measured every 2 min. for a period of 90 min. using a kinetic microtiter plate reader (Twinreader plus, Flow Laboratories).
All data are collected in an IBM personal computer using LOTUS-MEASURE. For each compound concentration (expressed in mol.l^−1 reaction mixture) and for the blank the absorbance is plotted versus the reaction time in min.
Evaluation of responses: For each final concentration the maximum absorbance was calculated from the assay plot. […]

T2 sequence (P08709 213-466 limits assumed): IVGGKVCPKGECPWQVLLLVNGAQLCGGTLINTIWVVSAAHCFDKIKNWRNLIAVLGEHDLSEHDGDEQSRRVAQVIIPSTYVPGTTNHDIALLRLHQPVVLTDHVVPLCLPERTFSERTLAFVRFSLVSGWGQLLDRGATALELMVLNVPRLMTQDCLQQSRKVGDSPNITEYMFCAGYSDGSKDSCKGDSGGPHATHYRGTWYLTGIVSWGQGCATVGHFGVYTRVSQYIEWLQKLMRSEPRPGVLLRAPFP
T2 sequence (P08709 61-212 limits assumed): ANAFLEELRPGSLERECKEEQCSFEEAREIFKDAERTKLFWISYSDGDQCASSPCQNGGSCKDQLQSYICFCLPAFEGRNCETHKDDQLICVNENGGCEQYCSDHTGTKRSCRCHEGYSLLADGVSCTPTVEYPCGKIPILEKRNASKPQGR
T2 sequence (P13726 33-295 partner): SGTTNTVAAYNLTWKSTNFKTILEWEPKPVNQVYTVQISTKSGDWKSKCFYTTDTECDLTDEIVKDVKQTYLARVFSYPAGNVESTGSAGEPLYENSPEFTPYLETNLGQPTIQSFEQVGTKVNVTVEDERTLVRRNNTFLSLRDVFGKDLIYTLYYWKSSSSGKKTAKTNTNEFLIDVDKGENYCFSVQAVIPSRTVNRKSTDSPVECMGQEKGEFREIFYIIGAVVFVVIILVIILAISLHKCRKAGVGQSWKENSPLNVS
T1 sequence (P00743 234-492 limits assumed): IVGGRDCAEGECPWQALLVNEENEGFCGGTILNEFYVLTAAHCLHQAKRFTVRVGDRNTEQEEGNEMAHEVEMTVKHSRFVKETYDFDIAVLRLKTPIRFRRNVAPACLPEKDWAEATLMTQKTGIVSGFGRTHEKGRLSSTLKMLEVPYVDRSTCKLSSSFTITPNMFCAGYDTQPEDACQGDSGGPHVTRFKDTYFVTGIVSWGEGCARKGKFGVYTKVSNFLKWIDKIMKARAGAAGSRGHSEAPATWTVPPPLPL
T1 sequence (P00743 41-180 limits assumed): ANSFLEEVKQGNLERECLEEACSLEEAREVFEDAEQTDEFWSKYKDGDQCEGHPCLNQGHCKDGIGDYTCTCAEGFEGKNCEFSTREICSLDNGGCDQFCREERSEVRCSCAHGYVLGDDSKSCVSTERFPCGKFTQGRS

percentage inhibition, anti factor VIIa/tissue factor activity [2]	IC50 [3]	SMILES	other results
		CCOC(=O)C(=O)C(CCCCN)NC(=O)C1CCCN1C(=O)C(CC1CCCCC1)NS(=O)(=O)CC [Example 5, EthylSO2-D-Cha-Pro-LysTr[COCO]-OEt]	IC50 [1]: 280 nM
		NCCCCC(NC(=O)CN1CCCCC(NS(=O)(=O)Cc2ccccc2)C1=O)C(=O)C(=O)NCc1ccccc1 (stereo not drawn) [Example 1, BzlSO2-norLeu(cyclo)-Gly-LysΨ[COCO]-NHBzl]	IC50 [1]: 640 nM
94%		CCS(=O)(=O)N[C@H](CC(C)C)C(=O)N[C@@H](CCC(N)=O)C(=O)N[C@@H](CCCCN)C(=O)C(=O)OC(C)C [EtSO2-D-Leu-Gln-LysΨ[COCO]-O-iPropyl]	
	10 nM	CC(C)OC(=O)C(=O)C(CCCCN)NC(=O)C1CCCN1C(=O)C(CC1CCCCC1)NS(=O)(=O)CC12CCC(CC1=O)C2(C)C [Example 24, (10-Camphor)SO2-D-Cha-Pro-LysΨ[COCO]—O-iPropyl]	
91%		CCS(=O)(=O)N1Cc2ccccc2C[C@@H]1C(=O)N[C@@H](Cc1ccccc1)C(=O)N[C@@H](CCCCN)C(=O)C(=O)OC(C)C [EtSO2-D-3-Tiq-Phe-LysΨ[COCO]-O-iPropyl]	
	20 nM	CC(C)OC(=O)C(=O)C(CCCCN)NC(=O)C1CCCN1C(=O)C(NS(=O)(=O)Cc1ccccc1)C(c1ccccc1)c1ccccc1 [Example 40, BzlSO2-D-Dpa-Pro-LysΨ[COCO]—O-iPropyl]	
	110 nM	CCS(=O)(=O)NC(Cc1ccc(OC)cc1)C(=O)N1CCCC1C(=O)NC(CCCCN)C(=O)C(=O)N1CCC1 [Example 38, EtSO2-D-Tyr(Me)-Pro -LysΨ[COCO]-Azetidine]	
56%		CCS(=O)(=O)N[C@@H](CC(N)=O)C(=O)N[C@@H](CC(C)C)C(=O)N[C@@H](CCCCN)C(=O)C(=O)OC(C)C [EtSO2-Asn-Leu-LysΨ[COCO]-O-iPropyl]	
		CC(C)OC(=O)C(=O)C(CCCCN)NC(=O)C1CCCN1C(=O)C(CC1CCCCC1)NS(=O)(=O)Cc1ccccc1 [Example 28, BenzylSO2-D-Cha-Pro-LysΨ[COCO]—O-iPropyl]	IC50 [1]: 20 nM
	90 nM	NCCCCC(NC(=O)CN1CCCCC(NS(=O)(=O)Cc2ccccc2)C1=O)C(=O)C(N)=O (stereo not drawn) [Example 4, BzlSO2-norLeu(cyclo)-Gly-LysΨ[COCO]—NH2]	
		NC(N)=NCCC[C@H](NC(=O)[C@@H]1CCCN1C(=O)[C@H](N)Cc1ccccc1)C(=O)CCl [Org 34593, reference compound]	IC50 ([2]; reference compound, 50% inhibition of the amidolytic reaction at 90 min): 300 nM
98%		CCS(=O)(=O)N[C@H](Cc1ccccc1)C(=O)N[C@@H](CC(C)C)C(=O)N[C@@H](CCCCN)C(=O)C(=O)OC(C)C [EtSO2-D-Phe-Leu-LysΨ[COCO]-O-iPropyl]	
